From article PMC5591244, “Novel selective, potent naphthyl TRPM8 antagonists identified through a combined ligand- and structure-based virtual screening approach” (Scientific Reports, 2017)
“Also recorded” adds a separate entry of the source.

What was measured:
[1] = Preliminary PK/ADMET study; conditions: in vivo proof of concept; Table S3 not available
Description: (§1) To assess the activity of compound 1 in preclinical models of painful urologic syndromes as OBS we used an isovolumetric rat bladder animal model. A preliminary PK/ADMET study was conducted to assess the behaviour of compound 1 in vivo (Table S3).

[2] = test system: TRPV3; assay: Selectivity, TRPV3 as named in the discussion; type: cell-based
[3] = molecular target: T1, wt TRPM8 (Homo sapiens, UniProt Q7Z2W7); assay: Calcium mobilization on HEK-293 cells transiently transfected with wt myc-tagged TRPM8; type: cell-based; conditions: icilin at EC80, wt; read-out: pIC50, inhibition of icilin activation, wt TRPM8 (converted)
T1 construct: expressed in transfected cells; host or cells: HEK-293, transient (Lipofectamine 2000)
T1 sequence (Q7Z2W7 whole entry): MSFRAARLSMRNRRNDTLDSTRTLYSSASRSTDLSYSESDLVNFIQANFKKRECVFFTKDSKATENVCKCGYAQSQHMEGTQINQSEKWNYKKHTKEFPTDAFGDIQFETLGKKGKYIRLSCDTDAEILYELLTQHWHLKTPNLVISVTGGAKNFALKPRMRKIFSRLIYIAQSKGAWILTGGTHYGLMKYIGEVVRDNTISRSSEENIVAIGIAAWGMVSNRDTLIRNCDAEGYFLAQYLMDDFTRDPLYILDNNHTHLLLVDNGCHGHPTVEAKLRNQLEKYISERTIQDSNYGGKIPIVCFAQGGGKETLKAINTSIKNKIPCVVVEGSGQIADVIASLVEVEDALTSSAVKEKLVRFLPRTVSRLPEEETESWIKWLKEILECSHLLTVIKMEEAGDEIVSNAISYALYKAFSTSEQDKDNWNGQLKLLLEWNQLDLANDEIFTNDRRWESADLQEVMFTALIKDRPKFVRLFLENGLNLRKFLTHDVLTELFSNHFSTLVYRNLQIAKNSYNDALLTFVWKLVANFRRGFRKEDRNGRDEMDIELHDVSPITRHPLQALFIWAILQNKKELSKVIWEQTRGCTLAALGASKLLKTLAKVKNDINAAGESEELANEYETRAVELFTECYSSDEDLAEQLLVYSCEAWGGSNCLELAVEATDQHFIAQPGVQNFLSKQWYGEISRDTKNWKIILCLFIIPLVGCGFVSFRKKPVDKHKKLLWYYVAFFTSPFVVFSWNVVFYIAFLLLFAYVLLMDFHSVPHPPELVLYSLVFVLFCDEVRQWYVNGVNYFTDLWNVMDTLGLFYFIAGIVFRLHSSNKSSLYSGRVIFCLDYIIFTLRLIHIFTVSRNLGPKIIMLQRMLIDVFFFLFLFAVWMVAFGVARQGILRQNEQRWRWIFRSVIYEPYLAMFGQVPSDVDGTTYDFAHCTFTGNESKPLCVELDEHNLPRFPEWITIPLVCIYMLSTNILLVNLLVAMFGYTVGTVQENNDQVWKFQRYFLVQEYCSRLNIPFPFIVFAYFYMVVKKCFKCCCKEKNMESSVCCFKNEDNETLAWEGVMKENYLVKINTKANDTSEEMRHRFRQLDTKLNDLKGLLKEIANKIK
Source text: Single point mutations were introduced in the hTRPM8-coding sequence, and the mutated TRPM8 was cloned as N-terminal c-myc tagged version into the pcDNA3 expression vector. This was done in that way that the single variations could be easily swapped from the myc-tagged expression construct into the non-tagged TRPM8 wild type expression construct.
The list of the variants is the following: variant 1, t2233g, a2234c (=Y745A); variant 2, a2236g, t2237c (=I746A); variant 3, a2395g, a2396c (=N799A) and variant 4, a2405c (D802A). The cloning project comprised three steps. First of all, a unique XhoI restriction site was inserted by site-directed mutagenesis (SDM) using DNA of the pcDNA3_TRPM8 construct as template. The 0.6 kb DNA fragment between the unique 5′ XhoI (introduced) and 3′ BamHI (already present) restriction sites comprised all positions of the four single point mutations and could be later used for their insertion as well as swapping between myc-tagged and non-tagged TRPM8 versions. […] The obtained data from at least four wells (as replicates) were analyzed with GraphPad PRISM® software (version 5, GraphPad Software Inc.) to calculate the mean and standard error of the mean[58], to create sigmoidal concentration-response curves and to calculate IC50 values.

[4] = test system: rat bladder (rhythmic bladder contraction); assay: Isovolumetric bladder rat model; type: in vivo
Description: as §1
Female Wistar rats (190–250 g) obtained from Charles River Laboratories were housed according to animal welfare guidelines. Rats were housed in a specific-pathogen-free environment under strictly controlled light cycle conditions, and food and water were provided ad libitum. All experimental protocols were carried out by Urosphere in accordance with the European Community Council Directive 86/609/EEC. They were performed in accordance with French legislation concerning the protection of laboratory animals and they were approved by French Ministry for Agriculture and Fisheries which provided a currently valid license for experiments on vertebrate animals to Dr. Philippe Lluel.
For intravenous administration, compound 1 was diluted in vehicle (10% of 2:1 solutol:NMP, 16% buffer, and 74% H2O) according to body weight to obtain doses of 10 mg/kg. For intravesical administration, compound 1 was diluted at a concentration of 7.56 mg/ml in a solution of 7% 2:1 solutol:NMP, […]. Eight rats were used for the control group and eight were used for the treated group.
Rats were anesthetized with urethane (1 g/kg, i.p.), given as a divided dose of 80% initially and 20% 15 min later. After abdominal incision, the ureters were ligated and sectioned. A catheter was placed into the bladder through the urethra. Then, the urethra was ligated at the level of the urinary meatus. For cystometric experiments with intravenous compound 1 administration a bladder catheter was connected via a T-tube to a strain gauge, which was used to measure the intravesical pressure. Isovolumetric bladder contractions were induced by stepwise injections of physiological saline at room temperature (100 μl every 5 min) until stable RBC occurred. After stabilization and a control period of at least 30 min, characterized by stable and reproducible bladder contractions (basal values), the test substance or vehicle was administered by intravenous infusion (1 mL within 5 min). The effects of compound 1 on micturition frequency (MF) (peaks/30 min), time of inhibition, and threshold volume (ml) (volume inducing RBC) were analyzed. The drug effects were evaluated from the end of the administration up to 1 hour after administration. For intravesical administration, compounds were administered intravesically 3 × 100 μl every 5 min. Then, the bladder was filled with 100 μl of saline every 5 min until the occurrence of rhythmic bladder contraction (RBC) with a maximal volume of 3 mL. […]

- PK/ADME properties [1]: adequate
- IC50 [3]: 63.1 nM
SMILES: Clc1c(OCCNCc2ccco2)ccc2ccccc12 [Compound 1]
- Effect on inhibition of TRPV3 [2]: didn’t have any effect
- Threshold volume versus vehicle, intravenous ([4]; intravenous 10 mg/kg): No significant difference
- Micturition frequency (MF) 0–30 min post-administration ([4]; intravenous 10 mg/kg, 0–30 min, 10 mg/kg): significantly decreased; also recorded: significantly reduced
- Micturition frequency (MF) 30–60 min post-administration ([4]; intravenous 10 mg/kg, 30–60 min): no effect
- Occurrence of RBC, intravesical ([4]; intravesical 2.268 mg): abolished the occurrence of RBC
